The series is described as follows: recombinant UMI read abundance after kanamycin selection (control-corrected) (log10(CPM+1)); higher = more efficient recombination; extreme values may be limits of the assay; sequences stand for … in AGTGCAGAGAAAATCGGCCAGTTTTCTCTGCCTGCAGTCCGCATGCCGTGGGACCCCTTGGGTTCTAACCTGTTGCCTAGATTTATGCAGCGGACTGCCTTTCTCCCAAAGTGATAAACCGG…AGGTTGGTTTCACT; site = the 11-nt donor. A digest of the protocol:
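Reported values are log10(CPM+1) from a pooled Escherichia coli screen of donor and donor-binding-loop pairs for the IS621 bridge recombinase. Selection used IPTG (0.07 mM) plus kanamycin, against unselected plating, each in two replicates. Recombinant UMIs were amplified across the donor–target junction, sequenced, converted to CPM, averaged over replicates and scaled by control-derived factors.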
For “GCGTAGCCATGGACCGGTTTTCCCGGTAATCCGTATTTGGG (site GCGCAGCCTCC)”, the “recombinant UMI read abundance (log10)” value stood at 0.00818. Next, “GCGTAGCCATGGACCGGTTTTCCCGGTAATCCGTATTTGGG (site GCGGAGCCTCC)”: 0.0167; “GCGTAGCCATGGACCGGTTTTCCCGGTAATCCGTATTTGGG (site GCGTAGCCTCC)”: 0.0103; “GCGTCACCATGGACCGGTTTTCCCGGTAATCCGTATTTGTT (site GCGTCACCTAA)”: 0.0187. The result for “GCGTTTACATGGACCGGTTTTCCCGGTAATCCGTATTTGCT (site ACGTTTACTAG)” reads 1.3; that for “GCGTTTACATGGACCGGTTTTCCCGGTAATCCGTATTTGCT (site CCGTTTACTAG)”, 0; that for “GCGTTTACATGGACCGGTTTTCCCGGTAATCCGTATTTGCT (site GCGTTTACTAG)”, 1.6. Regarding “GCGTTTACATGGACCGGTTTTCCCGGTAATCCGTATTTGCT (site TCGTTTACTAG)”, the “recombinant UMI read abundance (log10)” value worked out at 0.474.

“GCTAAAACATGGACCGGTTTTCCCGGTAATCCGTATTTGCT (site GCAAAAACTAG)”: the “recombinant UMI read abundance (log10)” value came out at 0. For the sequence “GCTAAAACATGGACCGGTTTTCCCGGTAATCCGTATTTGCT (site GCCAAAACTAG)”, the “recombinant UMI read abundance (log10)” value was determined as 0. The result for “GCTAAAACATGGACCGGTTTTCCCGGTAATCCGTATTTGCT (site GCGAAAACTAG)” reads 1.28. The result for “GCTAAAACATGGACCGGTTTTCCCGGTAATCCGTATTTGCT (site GCTAAAACTAG)” reads 1.01; that for “GCTAACTCATGGACCGGTTTTCCCGGTAATCCGTATTTGGG (site GCTAACTCTCC)”, 0.0314. Next, “GCTAAGCCATGGACCGGTTTTCCCGGTAATCCGTATTTGGG (site GCAAAGCCTCC)”: 0.00437; “GCTAAGCCATGGACCGGTTTTCCCGGTAATCCGTATTTGGG (site GCCAAGCCTCC)”: 0.0229; “GCTAAGCCATGGACCGGTTTTCCCGGTAATCCGTATTTGGG (site GCGAAGCCTCC)”: 0.00564.

In the case of “GCTAAGCCATGGACCGGTTTTCCCGGTAATCCGTATTTGGG (site GCTAAGCCTCC)”, the “recombinant UMI read abundance (log10)” value was 0.0172.

With “GCTAAGTCATGGACCGGTTTTCCCGGTAATCCGTATTTGTG (site GCTAAGTCTCA)”, the “recombinant UMI read abundance (log10)” value is 2.06. With “GCTACAGCATGGACCGGTTTTCCCGGTAATCCGTATTTGCC (site GCTACAGCTGG)”, the “recombinant UMI read abundance (log10)” value is 1.42. The result for “GCTACAGCATGGACCGGTTTTCCCGGTAATCCGTATTTGCC (site GCTACCGCTGG)” reads 0; that for “GCTACAGCATGGACCGGTTTTCCCGGTAATCCGTATTTGCC (site GCTACGGCTGG)”, 0.477. “GCTACAGCATGGACCGGTTTTCCCGGTAATCCGTATTTGCC (site GCTACTGCTGG)”: the “recombinant UMI read abundance (log10)” value was determined as 0.

On to “GCTACCCCATGGACCGGTTTTCCCGGTAATCCGTATTTGGA (site GCTACCCCTTC)”, for which the “recombinant UMI read abundance (log10)” value stood at 0.0342. Next, “GCTACCGCATGGACCGGTTTTCCCGGTAATCCGTATTTGCC (site GCTACAGCTGG)”: 0; “GCTACCGCATGGACCGGTTTTCCCGGTAATCCGTATTTGCC (site GCTACCGCTGG)”: 1.61; “GCTACCGCATGGACCGGTTTTCCCGGTAATCCGTATTTGCC (site GCTACGGCTGG)”: 0. Next, “GCTACCGCATGGACCGGTTTTCCCGGTAATCCGTATTTGCC (site GCTACTGCTGG)”: 0; “GCTACGTCATGGACCGGTTTTCCCGGTAATCCGTATTTGTT (site GATACGTCTAA)”: 0.00849; “GCTACGTCATGGACCGGTTTTCCCGGTAATCCGTATTTGTT (site GCTACGTCTAA)”: 0.808. Next, “GCTACGTCATGGACCGGTTTTCCCGGTAATCCGTATTTGTT (site GGTACGTCTAA)”: 0.0111; “GCTACGTCATGGACCGGTTTTCCCGGTAATCCGTATTTGTT (site GTTACGTCTAA)”: 0.0153; “GCTACTGCATGGACCGGTTTTCCCGGTAATCCGTATTTGCT (site GCTACTGCTAG)”: 1.64. For “GCTACTGCATGGACCGGTTTTCCCGGTAATCCGTATTTGCT (site GCTACTGCTCG)”, the “recombinant UMI read abundance (log10)” value turned out to be 0.00284.

For “GCTACTGCATGGACCGGTTTTCCCGGTAATCCGTATTTGCT (site GCTACTGCTGG)”, the “recombinant UMI read abundance (log10)” value came to 0.

(Values after the supplement of paper PMC11208160.)
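Also: IS621 bridge recombinase in Escherichia coli cells against a fixed T5 target plasmid.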
